Results reported in paper PMC12339163, “Combining Plant Bioactives With Antibiotics for Enhanced Antibiofilm Activity Against Uropathogenic Staphylococcus spp. and Cytotoxicity Evaluation” (Advances in Pharmacological and Pharmaceutical Sciences, 2025).
Where “and” joins values, the source holds several entries; their conditions need not be identical. Equal entries are not always repeated. Where two headings read alike, the source gives them in different places.

Tests used:
[1] = tested on: Staphylococcus aureus biofilm; assay: Checkerboard combination assay, biofilm eradication; type: cell-based
Procedure, shortened: (§1)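 Biofilms preformed for 24 h were washed and exposed to antibiotics (0.0625–128 µg/mL) combined with NPs (4–512 µg/mL) for 24 h at 37°C in checkerboard format. Viability was read by MTT reduction to set MBEC, and FICI was calculated for the combination.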

[2] = tested on: Staphylococcus saprophyticus biofilm; assay: as above; type: cell-based
Procedure, shortened: as §1

[3] = tested on: planktonic cells of Staphylococcus epidermidis; assay: Checkerboard combination assay, planktonic cells; type: cell-based; conditions: planktonic S. epidermidis, mean MIC; for MIC alone, ATB: antibiotic alone; for MIC alone, NPs: natural product alone, in µg/mL
Method: (§2) The checkerboard assay, as previously described, was used for the determination of the fractional inhibitory concentration index (FICI). Briefly, 50 µL of MHB was distributed into each well of a 96-well microplate. ATBs were serially diluted along the abscissa, and NPs were serially diluted along the ordinate. Then, 100 µL of bacterial inoculum (1.5 × 10^6 CFU/mL) was added to each well and incubated at 37°C for 24 h. The final concentration ranged from 0.125 to 128 µg/mL for ATBs and 4–512 µg/mL for NPs. After incubation, a volume of 40 µL of INT solution (0.2 mg/mL) was added to each well, and the microplate was incubated at 37°C for 30 min. The wells containing bacterial inoculum and MHB were used as a positive control, while wells containing only MHB + 1% glucose were used as a negative control and used as a blank. Viable bacteria cells change the yellow dye of INT to a pink color. The MICs were considered to be the lowest NP concentrations that prevented the color change medium. Subsequently, the FICI was calculated according to the formula FICI = (MIC of the ATBs in combination/MIC of the ATBs alone) + (MIC of a natural substance in combination/MIC of the natural substance alone). FICI values were interpreted as follows: synergy when FICI ≤ 0.5; additive when 0.5 < FICI ≤ 1; indifference when 1 < FICI ≤ 4; and antagonism when FICI > 4.

[4] = tested on: planktonic cells of Staphylococcus spp.; assay: Checkerboard combination assay, planktonic cells, synergistic combinations (Table 3); type: cell-based; conditions: mean
Method: as §2

S. epidermidis biofilm = assay: Time-kill kinetic assay on biofilm inhibition; type: cell-based, Staphylococcus epidermidis; conditions: at 24 h
Method: The biofilm formation inhibitory activity of NPs and ATBs was carried out according to the method previously described. A total of 100 µL of bacterial inoculum (1.5 × 10^6 CFU/mL) was used, and 100 µL of each sample was added to the microplate to achieve final concentrations ranging from 0.25 µg/mL to 128 µg/mL for ATBs and from 8 µg/mL to 1024 µg/mL for NPs. Then, the microplate was incubated at 37°C for 24 h. After incubation, the plates were gently emptied and washed three times with a phosphate buffer solution at pH 7.2. Then, the MTT solution (0.5 mg/mL) prepared in PBS was introduced into each well, and the microplate was further incubated at 37°C for 24 h. Untreated wells containing bacterial suspension and MHB supplemented with 1% glucose were considered positive controls, and wells containing only MHB+1% glucose without bacteria were used as blanks. After incubation, the MTT solution was aspirated, then 150 µL of DMSO was introduced to dissolve the formazan crystal formed by viable bacteria, and the optical density (OD) was measured at 570 nm using a microplate reader (VERSA-max). The percentage of biofilm inhibition was calculated using the formula below, and the minimal biofilm inhibitory concentration (MBIC) was recorded as the lowest concentration of NPs or ATBs that inhibited 100% of biofilm:(1) % biofilm inhibition=ODcontrol−ODblank−ODtest−ODblank/ODcontrol−ODblank×100.
The five best synergistic antibiofilm combinations were selected, and their ability to inhibit biofilm formation and eradication as a function of time was evaluated at 4-h intervals for 24 h by the microtiter plate method, as previously described. The synergistic antibiofilm combinations selected were with FICI < 0.4, named C1 to C5. C1: cefixime (5.33 µg/mL) + thymol (32 µg/mL); C2: cefazolin (1.16 µg/mL) + thymol (21.33 µg/mL); C3: amikacin (0.18 µg/mL) + curcumin (37.33 µg/mL); C4: kanamycin (0.25 µg/mL) + curcumin (14 µg/mL); and C5: amoxicillin (1.16 µg/mL) + curcumin (21.33 µg/mL). The kinetics of biofilm inhibition and eradication were performed as described above for the biofilm inhibition and eradication assay using the indicated combinations, followed by the reading of the optical densities (570 nm) at 4-h intervals over 24 h (0, 4, 8, 12, 16, and 24 h). In both cases, experiments were carried out three times in triplicate.

[5] = S. aureus biofilm eradication, antibiotic alone, mean MBEC
[6] = S. aureus, biofilm eradication, mean
[7] = S. saprophyticus biofilm eradication, antibiotic alone, mean MBEC
[8] = S. saprophyticus, biofilm eradication, mean
[9] = C2 and its components (cefazolin 1.16 µg/mL, thymol 21.33 µg/mL)
[10] = C1 and its components (cefixime 5.33 µg/mL, thymol 32 µg/mL)

SMILES: NCC[C@H](O)C(=O)N[C@@H]1C[C@H](N)[C@@H](O[C@H]2O[C@H](CN)[C@@H](O)[C@H](O)[C@H]2O)[C@H](O)[C@H]1O[C@H]1O[C@H](CO)[C@@H](O)[C@H](N)[C@H]1O [Amikacin, amikacin]
- MBEC Alone ATB [1, 5]: 13.33 µg/mL
- MBEC Alone ATB [1, 6]: 13.33 µg/mL
- MBEC Alone ATB [2, 7]: 13.33 µg/mL
- MIC alone, ATB [3]: 1.16 µg/mL
- MIC ([4]; read-out: MIC alone, ATB): 1.16 µg/mL

SMILES: CC1(C)S[C@@H]2[C@H](NC(=O)[C@H](N)c3ccc(O)cc3)C(=O)N2[C@H]1C(=O)O [Amoxicillin, amoxicillin]
- MBEC Alone ATB [1, 5]: 37.33 µg/mL
- MBEC Alone ATB [2, 7]: 9.33 µg/mL
- MIC alone, ATB [3]: 26.8 µg/mL

SMILES: COc1ccc2cc3[n+](cc2c1OC)CCc1cc2c(cc1-3)OCO2 [Berberine, berberine]
- MBEC Alone NPs [1, 6]: 149.33 µg/mL
- MBEC Alone NPs ([2]; S. saprophyticus biofilm eradication, natural product alone, mean MBEC, listed as Ber): 128 µg/mL and 85.33 µg/mL and 106.66 µg/mL and 170.66 µg/mL
- MBEC Alone NPs [2, 8]: 128 µg/mL

SMILES: Cc1nnc(SCC2=C(C(=O)O)N3C(=O)[C@@H](NC(=O)Cn4cnnn4)[C@H]3SC2)s1 [Cefazolin, cefazolin]
- MBEC Alone ATB [1, 5]: 42.66 µg/mL
- MBEC Alone ATB [1, 6]: 42.66 µg/mL
- MBEC Alone ATB [2, 7]: 10.66 µg/mL
- MBEC Alone ATB [2, 8]: 48 µg/mL
- MIC alone, ATB [3]: 42.7 µg/mL
- OD (570 nm), biofilm inhibition (S. epidermidis biofilm; [9]): 1.27

SMILES: C=CC1=C(C(=O)O)N2C(=O)[C@@H](NC(=O)/C(=N\OCC(=O)O)c3csc(N)n3)[C@H]2SC1 [Cefixime, cefixime]
- MBEC Alone ATB [1, 5]: 42.66 µg/mL
- MBEC Alone ATB [2, 7]: 48 µg/mL
- MBEC Alone ATB [2, 8]: 48 µg/mL
- MIC alone, ATB [3]: 107 µg/mL
- OD (570 nm), biofilm inhibition (S. epidermidis biofilm; [10]): 0.84

SMILES: COc1cc(/C=C/C(=O)CC(=O)/C=C/c2ccc(O)c(OC)c2)ccc1O [Curcumin, curcumin]
- MBEC Alone NPs ([1]; S. aureus biofilm eradication, natural product alone, mean MBEC, listed as Cur): 128 µg/mL and 149.33 µg/mL and 170.66 µg/mL and 106.66 µg/mL
- MBEC Alone NPs [1, 6]: 277.33 µg/mL
- MBEC Alone NPs ([2]; S. saprophyticus biofilm eradication, natural product alone, mean MBEC, listed as Cur): 170.66 µg/mL and 213.33 µg/mL
- MIC alone, NPs [3]: 384
- MIC ([4]; 24 h, read-out: MIC alone, NPs): 384 µg/mL

SMILES: C[C@H]1c2cccc(O)c2C(=O)C2=C(O)[C@]3(O)C(=O)C(C(N)=O)=C(O)[C@@H](N(C)C)[C@@H]3[C@@H](O)[C@@H]21 [Doxycycline, doxycycline]
- MBEC Alone ATB [1, 5]: 16 µg/mL
- MBEC Alone ATB [2, 7]: 9.33 µg/mL
- MIC alone, ATB [3]: 7 µg/mL
- MIC ([4]; read-out: MIC alone, ATB): 7 µg/mL

SMILES: CC[C@H]1OC(=O)[C@H](C)[C@@H](O[C@H]2C[C@@](C)(OC)[C@@H](O)[C@H](C)O2)[C@H](C)[C@@H](O[C@@H]2O[C@H](C)C[C@H](N(C)C)[C@H]2O)[C@](C)(O)C[C@@H](C)C(=O)[C@H](C)[C@@H](O)[C@]1(C)O [Erythromycin, erythromycin]
- MBEC Alone ATB [1, 5]: 44 µg/mL
- MBEC Alone ATB [2, 7]: 29.33 µg/mL
- MBEC Alone ATB [2, 8]: 29.33 µg/mL
- MIC alone, ATB [3]: 32.7 µg/mL

SMILES: O=C(O)c1cc(O)c(O)c(O)c1 [Gallic acid, 3,4,5-trihydroxybenzoic acid]
- MBEC Alone NPs ([1]; S. aureus biofilm eradication, natural product alone, mean MBEC): 298.66 µg/mL
- MIC alone, NPs ([3]; listed as Gal): 426.66 and 277.33
- MIC ([4]; 24 h, read-out: MIC alone, NPs): 512 µg/mL

SMILES: NC[C@H]1O[C@H](O[C@H]2[C@H](O)[C@@H](O[C@H]3O[C@H](CO)[C@@H](O)[C@H](N)[C@H]3O)[C@H](N)C[C@@H]2N)[C@H](O)[C@@H](O)[C@@H]1O [Kanamycin, kanamycin]
- MBEC Alone ATB [1, 5]: 14.66 µg/mL
- MBEC Alone ATB [2, 7]: 10.66 µg/mL
- MIC alone, ATB [3]: 7.33 µg/mL

SMILES: CC1=CC(=O)c2c(O)cccc2C1=O [Plumbagin, plumbagin]
- MBEC Alone NPs [2, 8]: 10.66 µg/mL

SMILES: O=c1c(O)c(-c2ccc(O)c(O)c2)oc2cc(O)cc(O)c12 [Quercetin, quercetin]
- MIC alone, NPs ([3]; listed as Que): 512 and 362.66

SMILES: Cc1ccc(C(C)C)c(O)c1 [Thymol, thymol]
- MBEC Alone NPs [2, 8]: 128 µg/mL
- MIC alone, NPs [3]: 426.66
- OD (570 nm), biofilm inhibition (S. epidermidis biofilm; [10]): 0.67
- OD (570 nm), biofilm inhibition (S. epidermidis biofilm; [9]): 0.96
- MIC ([4]; 24 h, read-out: MIC alone, NPs): 427 µg/mL
